Test results reported in ChEMBL document CHEMBL1201862, “PubChem BioAssay data set” (2004).
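Tested at 5 concentrations; 48 h exposure; 96-well plates; endpoints linearly interpolated, else capped at highest concentration. GI50 = concentration required for 50% inhibition of growth.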 Activity calls are given as the source filed them. No stated cut-off is given here; in the data, active = GI50 up to about 1.1 µM and inactive = higher.

Columns and labels:
Experiment in all cases: NCI anticancer screen, dose series, 48 h
K562 = tested on: K562
HCT-15 = tested on: HCT-15
DMS-273 = tested on: DMS-273
SK-MEL-28 = tested on: SK-MEL-28
UACC-62 = tested on: UACC-62
IGROV-1 = tested on: IGROV-1
RPMI-8226 = tested on: RPMI-8226
HCC 2998 = tested on: HCC 2998
M14 = tested on: M14
UACC-257 = tested on: UACC-257
LOX IMVI = tested on: LOX IMVI
DMS-114 = tested on: DMS-114
SF-539 = tested on: SF-539
SR = tested on: SR
SF-295 = tested on: SF-295
NCI-H522 = tested on: NCI-H522
MOLT-4 = tested on: MOLT-4
ACHN = tested on: ACHN
HOP-62 = tested on: HOP-62
A549 = tested on: A549
SK-MEL-2 = tested on: SK-MEL-2
LXFL 529 = tested on: LXFL 529
KM-20L2 = tested on: KM-20L2
SNB-78 = tested on: SNB-78
UO-31 = tested on: UO-31
HT-29 = tested on: HT-29
DLD-1 = tested on: DLD-1
XF498 = tested on: XF498
OVCAR-5 = tested on: OVCAR-5
COLO 205 = tested on: COLO 205
EKVX = tested on: EKVX
SK-OV-3 = tested on: SK-OV-3
U-251 = tested on: U-251
SW-620 = tested on: SW-620
RXF 631 = tested on: RXF 631
TK-10 = tested on: TK-10
SN12C = tested on: SN12C
HOP-18 = tested on: HOP-18
OVCAR-4 = tested on: OVCAR-4
M19-MEL = tested on: M19-MEL
Malme-3M = tested on: Malme-3M
KM12 = tested on: KM12
HCT-116 = tested on: HCT-116
HL-60 = tested on: HL-60
SNB-19 = tested on: SNB-19
CCRF-CEM = tested on: CCRF-CEM
OVCAR-8 = tested on: OVCAR-8
NCI-H460 = tested on: NCI-H460
OVCAR-3 = tested on: OVCAR-3
RXF 393 = tested on: RXF 393
NCI-H23 = tested on: NCI-H23
SF-268 = tested on: SF-268
NCI-H226 = tested on: NCI-H226
CAKI-1 = tested on: CAKI-1
786-0 = tested on: 786-0
A498 = tested on: A498
SNB-75 = tested on: SNB-75
HOP-92 = tested on: HOP-92
SK-MEL-5 = tested on: SK-MEL-5

Measured: GI50

CCOC(=O)c1cc(-c2ccc(-c3cc(C(=O)OCC)c(C#N)c(N)c3C#N)cc2)c(C#N)c(N)c1C#N
> 100 µM: HCT-15
inactive: K562 > 100 µM | DMS-273 > 100 µM | SK-MEL-28 > 100 µM | UACC-62 > 100 µM | IGROV-1 > 100 µM | RPMI-8226 > 100 µM | HCC 2998 > 100 µM | M14 > 100 µM | UACC-257 > 100 µM | LOX IMVI > 100 µM | DMS-114 > 100 µM | SF-539 > 100 µM | SR > 100 µM | SF-295 > 100 µM | NCI-H522 > 100 µM | MOLT-4 > 100 µM | ACHN > 100 µM | HOP-62 > 100 µM | A549 > 100 µM | SK-MEL-2 > 100 µM | LXFL 529 > 100 µM | KM-20L2 > 100 µM | SNB-78 > 100 µM | UO-31 > 100 µM | HT-29 > 100 µM | DLD-1 > 100 µM | XF498 > 100 µM | OVCAR-5 > 100 µM | COLO 205 > 100 µM | EKVX > 100 µM | SK-OV-3 > 100 µM | U-251 > 100 µM | SW-620 > 100 µM | RXF 631 > 100 µM | TK-10 > 100 µM | SN12C > 100 µM | HOP-18 > 100 µM | OVCAR-4 > 100 µM | M19-MEL > 100 µM | Malme-3M > 100 µM | KM12 > 100 µM | HCT-116 > 100 µM | HL-60 > 100 µM | SNB-19 > 100 µM | CCRF-CEM > 100 µM | OVCAR-8 > 100 µM | NCI-H460 > 100 µM | OVCAR-3 > 100 µM | RXF 393 > 100 µM | NCI-H23 > 100 µM | SF-268 > 100 µM | NCI-H226 > 100 µM | CAKI-1 > 100 µM | 786-0 > 100 µM

COc1ccc2nc3cccc(C(=O)NCCN(C)C)c3nc2c1
active: K562 0.794 µM | RPMI-8226 0.824 µM | LOX IMVI 0.64 µM | SR 0.264 µM | MOLT-4 0.187 µM | ACHN 0.689 µM | HT-29 0.632 µM | XF498 0.292 µM | SW-620 0.573 µM | Malme-3M 0.571 µM | HCT-116 0.512 µM | HL-60 1.08 µM
inactive: DMS-273 1.44 µM | SK-MEL-28 2.25 µM | UACC-62 2.24 µM | IGROV-1 2.67 µM | HCC 2998 1.85 µM | M14 2.28 µM | UACC-257 2.64 µM | DMS-114 1.29 µM | SF-539 2.1 µM | SF-295 2.08 µM | NCI-H522 2.73 µM | HOP-62 1.45 µM | A549 1.8 µM | SK-MEL-2 1.59 µM | LXFL 529 1.26 µM | KM-20L2 2.2 µM | SNB-78 2.88 µM | A498 1.55 µM | SNB-75 2.15 µM | UO-31 2.45 µM | DLD-1 1.37 µM | OVCAR-5 1.51 µM | COLO 205 1.75 µM | EKVX 3.06 µM | SK-OV-3 4.09 µM | U-251 2.57 µM | RXF 631 3.17 µM | TK-10 2 µM | SN12C 1.39 µM | HOP-18 3.19 µM | OVCAR-4 1.63 µM | M19-MEL 1.64 µM | HOP-92 5.13 µM | KM12 1.3 µM | SNB-19 2.84 µM | OVCAR-8 1.46 µM | OVCAR-3 2.08 µM | RXF 393 1.55 µM | NCI-H23 1.41 µM | SK-MEL-5 2.04 µM | NCI-H226 1.32 µM | 786-0 2.25 µM
1.43 µM: HCT-15
